According to US20250319067A1, “Improved Pharmacokinetics of Tryptamine Prodrugs” (Reunion Neuroscience, Inc., priority 2023, published 2025):

Assays:
[1] = test system: rat hepatocytes; test: Hepatocyte intrinsic clearance, rat; format: in vitro ADME
Text: (§1) In human, rat, rabbit, dog and monkey hepatocytes, the metabolite profile of RE104 was qualitatively similar across these species with only minor differences.

[2] = test system: human hepatocytes; test: Hepatocyte intrinsic clearance, human; format: in vitro ADME
Text: as §1

[3] = test system: cytochrome P450 (CYP) enzymes, FMO and MAO enzymes; test: Recombinant human enzymes (Supersomes) substrate assay; format: in vitro ADME
[4] = Prodrug cleavage in dog plasma; format: in vitro ADME; details: after 4 hours of incubation
Method: Mean values from 3 replicate assays are reported. See the Supplemental Methods for additional details.
Triplicate aliquots (50 μL) of each spiked plasma solution were immediately added to 200 μL of ice-cold methanol/acetonitrile solution (50:50 v/v) containing the internal standards to generate time zero samples. Spiked plasma solutions were incubated at 37° C. in an orbital shaker set to 75 rpm, and 50-μL samples were taken in triplicate after 30 minutes and 1, 2, and 4 hours of incubation. Each sample was immediately added to 200 μL ofice-cold methanol/acetonitrile solution containing the internal standard(s) to terminate the reaction. Samples were mixed by vortex and then stored at −80° C. until analysis.
Calibration standards were prepared in plasma for each species and analyzed in batches by LC-MS/MS. Sample batches consisted of 3 replicates of a system suitability standard (containing the analyte and internal standard), the appropriate calibration standards in ascending order including a blank sample without internal standard, a zero sample (with internal standard), and at least 6 nonzero standards and the assay samples, followed by the 3 replicates of the system suitability sample.

[5] = Conversion in aqueous solution; format: physicochemical; details: as a function of pH
[6] = test system: male Wistar rats; test: Forced swim test (FST) in rats; format: in vivo, rat
[7] = in vivo; details: male, beagle, dog, plasma
Method: Two consecutive doses were separated by z7 days. Plasma samples were analyzed using an LC-MS/MS method (lower limit of quantification of 1.00 ng/mL for both analytes).
Pharmacokinetic parameters were calculated using Phoenix WinNonlin, version 6.3 or 8.2 (Certara, Princeton, NJ, USA).
For dog PK assessments, approximately 0.5 mL of blood was collected via superficial vein before dose and at 5 (for IV and SC injections only), 15, and 30 minutes and 1, 2, 4, 8, 16, 24, 48, and 72 hours post dose into tubes containing K2EDTA with 10 mM Dichlorvos as the anticoagulant and stabilizer, respectively.

[8] = Rat PK after single IV or SC RE104 HCl 2 mg/kg (Example 1); details: plasma, sc, 2 mg/kg

SMILES: CC(C)N(CCc1c[nH]c2cccc(OC(=O)CCCC(=O)O)c12)C(C)C [RE104]
- in vitro intrinsic clearance (CLint) [1]: 6.66 mL/hr/106 cells
- in vitro intrinsic clearance (CLint) [2]: 3.45 mL/hr/106 cells
- substrate for cytochrome P450, FMO or MAO isoforms [3]: not a substrate
- prodrug remaining [4]: 39%
- conversion in aqueous solution [5]: slow conversion
- climbing as share of escape behaviors ([6]; rat FST, day 28): 45%
- swimming as share of escape behaviors ([6]; rat FST, day 28): 55%
- mean swimming time relative to vehicle ([6]; rat FST, single 1 mg/kg dose): significantly increased
- mean immobility time vs vehicle ([6]; rat FST, single 1 mg/kg dose, day 7, 14, and 28): significant decrease
- duration of distinctive serotonergic behaviors ([6]; rat, dosing day, 1 mg/kg): approximately 3 hours
- AUC(0-inf) ([7]; po, 5 mg/kg): 21.8 ng·h/mL
- AUC(0-t) ([7]; po, 5 mg/kg): 20 ng·h/mL
- Cmax ([7]; po, 5 mg/kg): 12.2 ng/mL
- Tmax ([7]; po, 5 mg/kg): 30 min
- bioavailability ([7]; po, 5 mg/kg): 0.854%
- half-life ([7]; po, 5 mg/kg): 78 min
- AUC(0-t) ([7]; sc, 1 mg/kg): 658 ng·h/mL
- bioavailability [8]: ~100%
